One series concerns the target T1, rat MOR (Rattus norvegicus, UniProt P33535).
T1 construct: expressed in transfected cells; host or cells: C6 rat glioma cells, stably transfected; membranes
Kind of series: Stimulation of [35S]GTPγS binding, C6 glioma cell membranes expressing MOR. In kind it is biochemical. Conditions: for MOR % Stimulation, [35S]GTPγS: compared to standard maximal DAMGO. Background: GTPγS resists hydrolysis and so accumulates on activated G proteins.

The target of series [1] is T2, human μ-opioid receptor β-arrestin-2 (Homo sapiens, UniProt P35372).
T2 construct: enzyme fragment for EFC (β-galactosidase ProLink fragment, by own knowledge of the PathHunter system); host or cells: PathHunter CHO cells
T2 sequence (P35372 whole entry, the tested form may be a part): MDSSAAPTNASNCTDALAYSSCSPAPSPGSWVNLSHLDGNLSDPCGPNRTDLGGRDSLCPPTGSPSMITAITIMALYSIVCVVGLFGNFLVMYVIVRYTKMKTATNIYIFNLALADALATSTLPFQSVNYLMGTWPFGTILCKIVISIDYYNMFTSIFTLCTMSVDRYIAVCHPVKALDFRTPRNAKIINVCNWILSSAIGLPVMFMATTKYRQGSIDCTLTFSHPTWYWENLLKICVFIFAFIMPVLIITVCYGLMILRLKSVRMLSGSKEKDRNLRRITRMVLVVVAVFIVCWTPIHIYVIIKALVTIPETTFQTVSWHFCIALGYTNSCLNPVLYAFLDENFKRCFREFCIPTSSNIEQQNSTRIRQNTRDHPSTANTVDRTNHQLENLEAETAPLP
Kind of series: cell-based. Conditions: for Emax: read-out: MOR Mediated β-arrestin Recruitment (% Control, Emax DAMGO). In general terms: Arrestin recruitment assays detect the binding of arrestin to an activated receptor.

In series [2] the target is T3, human δ-receptor (OPRMD1) (Homo sapiens, UniProt P41143).
T3 construct: host or cells: HitHunter CHO-K1 cells
T3 sequence (P41143 whole entry): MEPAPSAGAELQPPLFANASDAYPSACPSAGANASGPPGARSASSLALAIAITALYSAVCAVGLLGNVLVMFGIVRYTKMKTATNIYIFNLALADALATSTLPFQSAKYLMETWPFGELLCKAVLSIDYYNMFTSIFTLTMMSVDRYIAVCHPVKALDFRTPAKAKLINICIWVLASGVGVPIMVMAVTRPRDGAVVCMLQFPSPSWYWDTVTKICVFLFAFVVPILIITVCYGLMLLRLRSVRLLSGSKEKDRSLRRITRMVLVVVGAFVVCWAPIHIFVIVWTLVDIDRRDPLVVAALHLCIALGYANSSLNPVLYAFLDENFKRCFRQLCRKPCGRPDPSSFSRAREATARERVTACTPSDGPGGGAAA
In words: cell-based. In kind it is cell-based. Conditions: for Emax: CHO-K1, read-out: DOR cAMP % Efficacy; for EC50: DOR cAMP Agonist Potency ± SEM.

The next series addresses T4, μ-opioid receptor (MOR) (Rattus norvegicus, UniProt P33535).
T4 construct: Frozen whole rat brains excluding cerebellum were thawed on ice; from tissue; host or cells: whole rat brain excluding cerebellum, membrane homogenate
In words: Opioid receptor binding, μ sites ([3H]DAMGO), rat brain homogenate.

Series [3] concerns the target T5, human κ-opioid receptor (OPRK1) (Homo sapiens, UniProt P41145).
T5 construct: host or cells: HitHunter CHO-K1 cells
In words: cell-based. Conditions: for Emax: CHO-K1, read-out: KOR cAMP % Efficacy; for EC50: KOR cAMP Agonist Potency ± SEM.

Another series concerns the target T6, human KOR (Homo sapiens, UniProt P41145).
T6 construct: expressed in transfected cells; membranes
In words: Stimulation of [35S]GTPγS binding, CHO cell membranes expressing KOR. In kind it is biochemical. Conditions: CHO cells expressing KOR; mean ± SEM; DNS = no stimulation.

For a further series, the target named is T7, δ-opioid receptor (DOR) (Rattus norvegicus, UniProt P33533).
T7 construct: Frozen whole rat brains excluding cerebellum were thawed on ice; from tissue; host or cells: whole rat brain excluding cerebellum, membrane homogenate
T7 sequence (P33533 whole entry): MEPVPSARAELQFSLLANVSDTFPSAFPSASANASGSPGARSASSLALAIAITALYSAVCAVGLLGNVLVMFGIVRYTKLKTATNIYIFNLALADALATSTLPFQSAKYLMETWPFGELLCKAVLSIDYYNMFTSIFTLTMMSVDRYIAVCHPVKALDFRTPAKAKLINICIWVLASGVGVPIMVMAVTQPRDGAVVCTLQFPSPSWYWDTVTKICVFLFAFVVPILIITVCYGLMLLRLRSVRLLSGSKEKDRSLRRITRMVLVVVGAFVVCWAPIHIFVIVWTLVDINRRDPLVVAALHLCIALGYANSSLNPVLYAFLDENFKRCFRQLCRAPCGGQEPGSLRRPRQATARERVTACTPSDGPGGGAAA
Kind of series: Opioid receptor binding, δ sites ([3H]DADLE), rat brain homogenate.

For the next series, the target named is T8, κ-opioid receptor (KOR) (Rattus norvegicus, UniProt P34975).
T8 construct: Frozen whole rat brains excluding cerebellum were thawed on ice; from tissue; host or cells: whole rat brain excluding cerebellum, membrane homogenate
T8 sequence (P34975 whole entry): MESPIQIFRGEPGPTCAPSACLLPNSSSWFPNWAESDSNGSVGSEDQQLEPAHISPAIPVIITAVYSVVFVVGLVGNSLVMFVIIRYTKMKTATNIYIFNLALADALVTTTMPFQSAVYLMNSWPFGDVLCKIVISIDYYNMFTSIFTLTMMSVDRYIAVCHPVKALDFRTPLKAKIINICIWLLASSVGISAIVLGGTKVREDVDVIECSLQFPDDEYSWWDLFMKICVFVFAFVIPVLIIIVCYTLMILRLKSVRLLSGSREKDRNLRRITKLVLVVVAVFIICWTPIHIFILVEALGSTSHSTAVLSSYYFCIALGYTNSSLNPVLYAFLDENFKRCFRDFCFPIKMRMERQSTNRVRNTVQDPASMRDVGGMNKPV
Kind of series: Opioid receptor binding, κ sites ([3H]U69,593), rat brain homogenate.

The target of another series is T9, rat DOR (Rattus norvegicus, UniProt P33533).
T9 construct: expressed in transfected cells; host or cells: C6 rat glioma cells, stably transfected; membranes
T9 sequence (P33533 whole entry): as the sequence (P33533 whole entry) above
Kind of series: Stimulation of [35S]GTPγS binding, C6 glioma cell membranes expressing DOR. Conditions: for EC50: DOR EC50, [35S]GTPγS, C6 cells expressing DOR, mean ± SEM; for DOR % Stimulation, [35S]GTPγS: compared to standard maximal DPDPE. In kind it is biochemical.

For series [4], the target named is T10, human μ-opioid receptor (OPRM1) (Homo sapiens, UniProt P35372).
T10 construct: host or cells: HitHunter CHO-K1 cells
T10 sequence (P35372 whole entry): as the sequence (P35372 whole entry, the tested form may be a part) above
In words: cell-based. Conditions: for EC50: MOR cAMP Agonist Potency ± SEM; for Emax: OPRM1, read-out: MOR cAMP % Efficacy.

In series [5] the test system is squirrel monkeys. Kind of series: Squirrel monkey ventilation (whole-body plethysmograph, air or 5% CO2). In kind it is in vivo, Saimiri sciureus. The protocol: (§1) Gas (either air or a 5% CO2 in air mixture) was introduced to and extracted from the chamber at a constant flow rate of 5 L/min. Experimental sessions consisted of 4–6 consecutive 30 min cycles, each comprising a 15 min exposure to air followed by a 15 min exposure to 5% CO2. Drug effects were determined using cumulative dosing procedures, and injections were administered following each exposure to 5% CO2. Respiratory rate and tidal volume (mL/breath) were recorded over 1 min periods and were multiplied to provide minute volumes. Data from the last three minutes of each exposure to air or CO2 were averaged and used for analysis of drug effects on ventilation.

Test in series [6]: as above
Conditions: male, monkey, in vivo, other: injection; squirrel monkeys; dose required to decrease minute volume in 5% CO2 to 50% of baseline; read-out: ED50 Respiratory Depression. In kind it is in vivo, Saimiri sciureus. The protocol:
as §1

Series [7] deals with squirrel monkeys. Kind of series: Warm-water tail-withdrawal latency in squirrel monkeys. In kind it is in vivo, Saimiri sciureus. Conditions: for ED50: Saimiri, in Primates; for Antinociceptive effect, tail withdrawal latency at 50, 52 and 55 °C: cumulative doses.
The test system of series [8] is squirrel monkeys. In words: Operant responding (FR10 food reinforcement) in squirrel monkeys. Conditions: squirrel monkeys.
Test in series [9]: as above
Conditions: male, monkey, in vivo.

The next series has as its system Swiss Webster mice. Kind of series: Respiration rate and arterial oxygen saturation in mice (MouseOx pulse oximeter). The note with it: for Effect on oxygen saturation (SpO2) in mice: 6 min to 45 min post-injection, data not shown; for Effect on respiration rate in mice: normal air, s.c., 2i 0.01–0.1 mg/kg, morphine 10 mg/kg, AUC 6–45 min post injection, vs saline.

The mark [10] stands for this setting: dose required to increase tail withdrawal latency to 5 s, read-out: ED50 Antinociception (52 °C).

Consider three compounds from paper PMC7321161, “The Intriguing Effects of Substituents in the N-Phenethyl Moiety of Norhydromorphone: A Bifunctional Opioid from a Set of “Tail Wags Dog” Experiments” (Molecules, 2020).

Values joined by “and” are separate entries in the source; they are usually repeats but may differ in a detail not shown here. Identical values can stand only once. “Also recorded” adds a separate entry of the source. Like-named read-outs stand apart in the source and are kept apart here.

Broadly, the EC50 is the concentration giving half of the maximal effect. A word on the Ki: it is a measure of affinity in units of concentration, obtained from inhibition or displacement. The ED50 is the midpoint of the dose-response relation.

T5 sequence (P41145 whole entry): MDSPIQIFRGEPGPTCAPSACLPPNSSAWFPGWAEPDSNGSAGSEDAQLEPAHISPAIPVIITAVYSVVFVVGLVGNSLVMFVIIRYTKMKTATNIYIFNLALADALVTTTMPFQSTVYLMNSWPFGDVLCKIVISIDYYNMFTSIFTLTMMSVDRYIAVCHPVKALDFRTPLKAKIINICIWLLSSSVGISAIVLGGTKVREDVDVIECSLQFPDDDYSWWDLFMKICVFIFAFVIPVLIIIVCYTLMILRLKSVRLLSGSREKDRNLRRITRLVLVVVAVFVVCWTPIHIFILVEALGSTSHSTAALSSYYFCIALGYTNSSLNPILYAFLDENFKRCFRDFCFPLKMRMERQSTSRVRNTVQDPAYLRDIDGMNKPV
T1 sequence (P33535 whole entry): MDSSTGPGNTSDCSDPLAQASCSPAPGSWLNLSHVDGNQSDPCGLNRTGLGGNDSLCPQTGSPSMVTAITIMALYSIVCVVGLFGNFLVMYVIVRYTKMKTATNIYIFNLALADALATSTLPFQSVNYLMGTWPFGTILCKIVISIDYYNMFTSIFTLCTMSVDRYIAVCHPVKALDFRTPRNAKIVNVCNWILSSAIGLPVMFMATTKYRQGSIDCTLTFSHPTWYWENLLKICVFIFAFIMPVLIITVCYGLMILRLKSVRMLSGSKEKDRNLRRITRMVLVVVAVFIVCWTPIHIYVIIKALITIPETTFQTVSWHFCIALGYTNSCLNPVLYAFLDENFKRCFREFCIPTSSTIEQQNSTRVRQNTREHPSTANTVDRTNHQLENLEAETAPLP
T4 sequence (P33535 whole entry): as above
T6 sequence (P41145 whole entry): as the sequence (P41145 whole entry) above

For the compound `O=C1CCC2C3Cc4ccc(O)c5c4[C@@]2(CCN3CCc2ccccc2F)[C@H]1O5` (stereo partly drawn) [Compound 2g, (7aR,12bS)-9-Hydroxy-3-(2-fluorophenethyl)-2,3,4,4a,5,6-hexahydro-1H-4,12-methanobenzofuro[3,2-e]-isoquinolin-7(7aH)-one], the EC50 on rat MOR came out at 2.1 ± 0.7 nM; in series [1], 1.7 nM; in series [2] it was 0.26 nM; in series [3], 19.9 nM; at rat DOR it was 92.7 ± 17 nM; in series [4], 0.01 nM. Moreover, on rat MOR, the “MOR % Stimulation, [35S]GTPγS” value is 100 ± 0.3%. Further, in series [1], the “Bias Factor” value came out at 1.37. For the same compound, the Emax is 73.2% in series [1], 93.8% in series [2], 74% in series [3] and 101% in [4]. Also, the Ki at μ-opioid receptor (MOR) came out at 0.32 ± 0.04 nM; at δ-opioid receptor (DOR), 3.57 ± 0.49 nM; at κ-opioid receptor (KOR) (KOR Binding (Ki), whole rat brain excluding cerebellum, [3H]U69,593, Ki ± SEM), 23.2 ± 2.8 nM. For the same compound, the “KOR EC50, [35S]GTPγS” value at human KOR is on record as “DNS”. Also, the “DOR % Stimulation, [35S]GTPγS” value at rat DOR amounted to 83.0 ± 3.3%.
With `O=C1CCC2C3Cc4ccc(O)c5c4[C@@]2(CCN3CCc2ccc(Cl)cc2)[C@H]1O5` (stereo partly drawn) [Compound 2i, (7aR,12bS)-3-(4-Chlorophenethyl)-9-hydroxy-2,3,4,4a,5,6-hexahydro-1H-4,12-methanobenzofuro[3,2-e]-isoquinolin-7(7aH)-one], the EC50 at rat MOR is 2 ± 1 nM; in series [1] it was 2.44 nM; in series [2], 0.53 nM; in series [3] it was 55 nM and 55.2 nM; at rat DOR it was 2.4 ± 0.7 nM; in series [4] it was 0.05 nM. Besides, the “MOR activity type in the [35S]GTPγS assay” value at rat MOR (antagonist activity assumed from high MOR affinity and lack of stimulation) is reported as “potent partial MOR agonist”. Besides, on rat MOR, the “MOR % Stimulation, [35S]GTPγS” value is 39.0 ± 2.1%. Moreover, in series [1], the “Bias Factor” value worked out at 0.82. The Emax in series [1] is 44.8%; in series [2] it was 84.8%; in [3], 76.6%; in series [4], 98.8%. For the same compound, the “EC50 δ/μ ratio in the cAMP assay” value in series [2] stood at 10. In the series with squirrel monkeys [5], the “Effect on ventilation (minute volume) during exposure to 5% CO2 mixed in air (hypercapnia)” value is given as “significantly reduced minute volume in 5% CO2; also recorded: respiration was depressed; also recorded: significantly decreased ventilation”. In the series with squirrel monkeys [5] (2i 0.003–0.1 mg/kg, morphine 0.03–3.0 mg/kg), the “Effect on respiratory rate or ventilation (minute volume) during exposure to air alone” value is reported as “did not depress respiration; also recorded: neither 2i (0.003–0.1 mg/kg) nor morphine (0.03–3.0 mg/kg) had effects”. Further, the ED50 was found to be 0.057 mg/kg in series [6]; 0.015 mg/kg in the series on squirrel monkeys [7] (setting [10]); 0.01 mg/kg in the series with squirrel monkeys [7] (read-out: ED50 Antinociception (50 °C), tail withdrawal, 50 °C water); 0.022 mg/kg in [9]. In addition, the inhibition constant (Ki) on μ-opioid receptor (MOR) turned out to be 1.09 ± 0.06 nM; on δ-opioid receptor (DOR) it was 7.89 ± 1.1 nM. Besides, on δ-opioid receptor (DOR) (DOR Ki / MOR Ki), the “δ/μ ratio in opioid receptor binding studies” value was “about 7”. Besides, at κ-opioid receptor (KOR) (radioligand displacement at 100 nM), the “KOR Binding, exploratory binding assay” value was “NT (NT = not tested—inactive (<50% activity at 100 nM concentration in exploratory binding assays (displaced less than half of radioligand))”. Besides, the “Antinociceptive effect, tail withdrawal latency at 50, 52 and 55 °C” value in the series on squirrel monkeys [7] was “full effect at moderate (50 °C) and hot (52 °C) but not at very hot (55 °C) water temperatures”. The “Behavioral impairment (decreases in operant performance, reinforcers obtained)” value in the series with squirrel monkeys [8] is “dose-related behavioral impairment”. The “DOR activity type in the [35S]GTPγS assay” value at rat DOR is “potent full DOR agonist”. The “DOR % Stimulation, [35S]GTPγS” value at rat DOR came out at 83.8 ± 3.7%. Also, the “Effect on oxygen saturation (SpO2) in mice” value with Swiss Webster mice was “neither morphine nor 2i had any effect”. In addition, in the series on Swiss Webster mice, the “Effect on respiration rate in mice” value is “did not depress respiration rate; also recorded: no effect on respiration rate”.
In the case of `CN1CC[C@]23c4c5ccc(O)c4O[C@H]2[C@@H](O)C=C[C@H]3[C@H]1C5` [Morphine, reference compound], the ED50 worked out at 1.06 mg/kg in series [6], 0.14 mg/kg in the series on squirrel monkeys [7] (setting [10]) and 1.3 mg/kg in [9]. In the series with squirrel monkeys [7], the “Antinociceptive effect, tail withdrawal latency at 50, 52 and 55 °C” value is “full antinociceptive effects at all three water temperatures”. Besides, the “Behavioral impairment (decreases in operant performance, reinforcers obtained)” value with squirrel monkeys [8] is “dose-related behavioral impairment”. In addition, in the series on Swiss Webster mice, the “Effect on oxygen saturation (SpO2) in mice” value is “neither morphine nor 2i had any effect”. For the same compound, the results for the “Effect on respiration rate in mice” value in the series with Swiss Webster mice and with Swiss Webster mice (listed as morphine) were “significantly reduced respiratory rate” and “significantly reduced; also recorded: significantly decreased respiratory rate”, respectively.
